Columns and labels:
[1] = Phase solubility study, ETH; conditions: 1:1 stoichiometry assumed, from phase solubility diagram
[2] = Phase solubility study, Booster; conditions: 1:1 stoichiometry assumed; BDM43266 per FIG. 2B
Mtb H37Rv = experiment: Lung mycobacterial load in Mtb-challenged mice (CFU counting); format: in vivo, Mycobacterium tuberculosis; conditions: Booster co-loaded with ETH in pβCD
BMDM = experiment: Apoptosis/necrosis assay (Annexin V and DNA intercalating dye); format: cell-based, murine; conditions: 24 hours incubation

Structure (SMILES) | K1:1 (binding constant) in the case of ETH [1] | K1:1 (binding constant) in the case of Booster [2] | boosting efficacy on ETH (Mtb H37Rv) | Annexin V / DNA intercalating dye staining (BMDM)
OC[C@H]1O[C@@H]2O[C@H]3[C@H](O)[C@@H](O)[C@@H](O[C@H]4[C@H](O)[C@@H](O)[C@@H](O[C@H]5[C@H](O)[C@@H](O)[C@@H](O[C@H]6[C@H](O)[C@@H](O)[C@@H](O[C@H]7[C@H](O)[C@@H](O)[C@@H](O[C@H]8[C@H](O)[C@@H](O)[C@@H](O[C@H]9[C@H](O)[C@@H](O)[C@@H](O[C@H]1[C@H](O)[C@H]2O)O[C@@H]9CO)O[C@@H]8CO)O[C@@H]7CO)O[C@@H]6CO)O[C@@H]5CO)O[C@@H]4CO)O[C@@H]3CO [γCD, γ-cyclodextrin] | 47 | 256 |  | 
O=C(CCCC(F)(F)F)N1CCC(c2nc(-c3nccs3)no2)CC1 [BDM41906] |  |  | No difference was observed concerning the boosting efficacy between BDM41906 and BDM43266 | 
OC[C@H]1O[C@@H]2O[C@H]3[C@H](O)[C@@H](O)[C@@H](O[C@H]4[C@H](O)[C@@H](O)[C@@H](O[C@H]5[C@H](O)[C@@H](O)[C@@H](O[C@H]6[C@H](O)[C@@H](O)[C@@H](O[C@H]7[C@H](O)[C@@H](O)[C@@H](O[C@H]1[C@H](O)[C@H]2O)O[C@@H]7CO)O[C@@H]6CO)O[C@@H]5CO)O[C@@H]4CO)O[C@@H]3CO [αCD, α-cyclodextrin] | 24 | 100 |  | 
CN[C@@H]1C[C@H]2O[C@@](C)([C@@H]1OC)n1c3ccccc3c3c4c(c5c6ccccc6n2c5c31)C(=O)NC4 [staurosporine] |  |  |  | late apoptotic, double positive cells
OC[C@H]1O[C@@H]2O[C@H]3[C@H](O)[C@@H](O)[C@@H](O[C@H]4[C@H](O)[C@@H](O)[C@@H](O[C@H]5[C@H](O)[C@@H](O)[C@@H](O[C@H]6[C@H](O)[C@@H](O)[C@@H](O[C@H]7[C@H](O)[C@@H](O)[C@@H](O[C@H]8[C@H](O)[C@@H](O)[C@@H](O[C@H]1[C@H](O)[C@H]2O)O[C@@H]8CO)O[C@@H]7CO)O[C@@H]6CO)O[C@@H]5CO)O[C@@H]4CO)O[C@@H]3CO [βCD, β-Cyclodextrin] | 100 | 514 |  | 

— patent US12539312B2, “Use of materials made of cross-linked β-cyclodextrins for the treatment of tuberculosis” (INSERM (INSTITUT NATIONAL DE LA SANTÉ ET DE LA RECHERCHE …, priority 2019, dated 2026)
